Results as given in patent US11649255B2, “Indazoles as hematopoietic progenitor kinase 1 (HPK1) inhibitors and methods using same” (1st Biotherapeutics, Inc., priority 2020, dated 2023).

Molecular target: recombinant human HPK1 (Homo sapiens (Human), UniProt Q92918)
Assay: HPK1 kinase assay (ADP-Glo)
Format: biochemical
Conditions: 25 μM ATP, MBP substrate
Summary of the method: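 Activity was read as ADP formed, detected by ADP-Glo luminescence after the reaction of 5 ng recombinant human HPK1 with MBP and ATP (stocks 0.5 μg/μl and 25 μM) for 40 min at 30 °C. Buffer was Tris pH 7.5 with MgCl2, BSA and DTT, with compound in 0.5% DMSO. IC50 came from inhibition curves.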

Chain of recombinant human HPK1 (Q92918 whole entry): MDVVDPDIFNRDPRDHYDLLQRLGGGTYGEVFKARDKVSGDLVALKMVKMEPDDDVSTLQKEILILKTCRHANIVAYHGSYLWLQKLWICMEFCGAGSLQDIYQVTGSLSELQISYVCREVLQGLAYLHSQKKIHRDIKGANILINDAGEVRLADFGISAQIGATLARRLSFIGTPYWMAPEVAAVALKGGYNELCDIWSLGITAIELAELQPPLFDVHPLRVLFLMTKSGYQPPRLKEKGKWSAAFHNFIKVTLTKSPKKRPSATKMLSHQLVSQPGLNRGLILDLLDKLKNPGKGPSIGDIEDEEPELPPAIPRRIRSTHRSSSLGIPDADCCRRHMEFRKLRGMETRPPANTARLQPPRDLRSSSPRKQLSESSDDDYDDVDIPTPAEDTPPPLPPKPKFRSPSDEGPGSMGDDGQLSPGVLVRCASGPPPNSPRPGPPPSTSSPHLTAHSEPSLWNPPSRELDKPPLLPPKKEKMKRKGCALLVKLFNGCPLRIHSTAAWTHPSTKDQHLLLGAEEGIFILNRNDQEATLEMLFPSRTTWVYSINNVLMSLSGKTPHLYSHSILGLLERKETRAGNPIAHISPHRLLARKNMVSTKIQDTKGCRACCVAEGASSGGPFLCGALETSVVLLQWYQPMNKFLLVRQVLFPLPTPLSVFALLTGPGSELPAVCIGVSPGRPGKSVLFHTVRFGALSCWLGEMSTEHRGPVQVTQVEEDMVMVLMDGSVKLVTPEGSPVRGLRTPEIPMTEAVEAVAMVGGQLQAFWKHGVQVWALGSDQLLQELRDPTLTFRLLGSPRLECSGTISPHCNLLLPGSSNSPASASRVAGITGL

IC50 [nM]	SMILES
< 100	Cc1c(F)c(OCCNC(N)=O)c2[nH]ncc2c1-c1ccn2nc(NC(=O)[C@@H]3C[C@@H]3F)cc2c1 [Example 544, (1S,2S)-2-fluoro-N-(5-(6-fluoro-5-methyl-7-(2-ureidoethoxy)-1H-indazol-4-yl)pyrazolo[1,5-a]pyridin-2-yl)cyclopropane-1-carboxamide]
< 100	CN(C)c1c(F)c(Cl)c(-c2ccc3nc(NC(=O)[C@@H]4C[C@@H]4F)sc3c2)c2cn[nH]c12 [Example 69, (1S,2S)-N-(6-(5-chloro-7-(dimethylamino)-6-fluoro-1H-indazol-4-yl)benzo[d]thiazol-2-yl)-2-fluorocyclopropane-1-carboxamide]
< 100	CCc1c(F)c(N(C)CC)c2[nH]ncc2c1-c1ccc2nc(NC(=O)[C@@H]3C[C@@H]3F)sc2n1 [Example 200, (1S,2S)-N-(5-(5-ethyl-7-(ethyl(methyl)amino)-6-fluoro-1H-indazol-4-yl)thiazolo[5,4-b]pyridin-2-yl)-2-fluorocyclopropane-1-carboxamide]
< 100	CC(C)c1c(F)cc2[nH]ncc2c1-c1ccc2nc(NC(=O)[C@@H]3C[C@@H]3F)sc2n1 [Example 150, (1S,2S)-2-fluoro-N-(5-(6-fluoro-5-isopropyl-1H-indazol-4-yl)thiazolo[5,4-b]pyridin-2-yl)cyclopropane-1-carboxamide]
< 100	CC(=O)Nc1c(F)c(Cl)c(-c2ccn3nc(NC(=O)[C@@H]4C[C@@H]4F)cc3c2)c2cn[nH]c12 [Example 537, (1S,2S)-N-(5-(7-acetamido-5-chloro-6-fluoro-1H-indazol-4-yl)pyrazolo[1,5-a]pyridin-2-yl)-2-fluorocyclopropane-1-carboxamide]
> 1000	CCc1n[nH]c2cc(F)c(C)c(-c3ccn4nc(NC(=O)[C@@H]5C[C@@H]5F)cc4c3)c12 [Example 475, (1S,2S)-N-(5-(3-ethyl-6-fluoro-5-methyl-1H-indazol-4-yl)pyrazolo[1,5-a]pyridin-2-yl)-2-fluorocyclopropane-1-carboxamide]
> 1000	Cc1c(F)cc2[nH]nc(I)c2c1-c1ccc2nc(NC(=O)[C@@H]3C[C@@H]3F)sc2c1 [Example 45, (1S,2S)-2-fluoro-N-(6-(6-fluoro-3-iodo-5-methyl-1H-indazol-4-yl)benzo[d]thiazol-2-yl)cyclopropane-1-carboxamide]
< 100	O=C(Nc1cn2cc(-c3c(Cl)c(F)cc4[nH]ncc34)ccc2n1)[C@@H]1C[C@@H]1F [Example 243, (1S,2S)-N-(6-(5-chloro-6-fluoro-1H-indazol-4-yl)imidazo[1,2-a]pyridin-2-yl)-2-fluorocyclopropane-1-carboxamide]
101 to 500	CO[C@H](C)[C@@H](OC)c1c(F)c(Cl)c(-c2ccn3nc(NC(=O)[C@@H]4C[C@@H]4F)cc3c2)c2cn[nH]c12 [Example 666, (1S,2S)-N-(5-(5-chloro-7-((1S,2R)-1,2-dimethoxypropyl)-6-fluoro-1H-indazol-4-yl)pyrazolo[1,5-a]pyridin-2-yl)-2-fluorocyclopropane-1-carboxamide]
< 100	Cc1c(F)c(OC(F)(F)F)c2[nH]ncc2c1-c1ccn2nc(NC(=O)[C@@H]3C[C@@H]3F)cc2c1 [Example 592, (1S,2S)-2-fluoro-N-(5-(6-fluoro-5-methyl-7-(trifluoromethoxy)-1H-indazol-4-yl)pyrazolo[1,5-a]pyridin-2-yl)cyclopropane-1-carboxamide]
< 100	Cc1c(F)c(C(F)(F)F)c2[nH]ncc2c1-c1ccc2nc(NC(=O)[C@@H]3C[C@@H]3F)sc2n1 [Example 205, (1S,2S)-2-fluoro-N-(5-(6-fluoro-5-methyl-7-(trifluoromethyl)-1H-indazol-4-yl)thiazolo[5,4-b]pyridin-2-yl)cyclopropane-1-carboxamide]
< 100	N#Cc1c(F)c(Cl)c(-c2ccc3nc(NC(=O)[C@@H]4C[C@@H]4F)cn3c2)c2cn[nH]c12 [Example 351, (1S,2S)-N-(6-(5-chloro-7-cyano-6-fluoro-1H-indazol-4-yl)imidazo[1,2-a]pyridin-2-yl)-2-fluorocyclopropane-1-carboxamide]

Second part, the molecule before the results:

SMILES	IC50 [nM]
Cc1c(F)c(C)c2[nH]ncc2c1-c1ccc2nc(NC(=O)[C@@H]3C[C@@H]3F)cn2c1 [Example 257, (1S,2S)-2-fluoro-N-(6-(6-fluoro-5,7-dimethyl-1H-indazol-4-yl)imidazo[1,2-a]pyridin-2-yl)cyclopropane-1-carboxamide]	< 100
CN(c1ncccn1)c1c(F)c(Cl)c(-c2ccc3nc(NC(=O)[C@@H]4C[C@@H]4F)cn3c2)c2cn[nH]c12 [Example 346, (1S,2S)-N-(6-(5-chloro-6-fluoro-7-(methyl(pyrimidin-2-yl)amino)-1H-indazol-4-yl)imidazo[1,2-a]pyridin-2-yl)-2-fluorocyclopropane-1-carboxamide]	< 100
O=C(Nc1cc2cc(-c3c(Cl)c(F)c(Nc4ccncc4)c4[nH]ncc34)ccn2n1)[C@@H]1C[C@@H]1F [Example 609, (1S,2S)-N-(5-(5-chloro-6-fluoro-7-(pyridin-4-ylamino)-1H-indazol-4-yl)pyrazolo[1,5-a]pyridin-2-yl)-2-fluorocyclopropane-1-carboxamide]	< 100
CN(c1c(F)c(Cl)c(-c2ccc3nc(NC(=O)[C@@H]4C[C@@H]4F)sc3c2)c2cn[nH]c12)C1CNC1 [Example 129, (1S,2S)-N-(6-(7-(azetidin-3-yl(methyl)amino)-5-chloro-6-fluoro-1H-indazol-4-yl)benzo[d]thiazol-2-yl)-2-fluorocyclopropane-1-carboxamide]	< 100
Cc1c(F)cc2[nH]ncc2c1-c1ccn2nc(NC(=O)[C@@H]3C[C@@H]3F)cc2c1 [Example 460, (1S,2S)-2-fluoro-N-(5-(6-fluoro-5-methyl-1H-indazol-4-yl)pyrazolo[1,5-a]pyridin-2-yl)cyclopropane-1-carboxamide]	< 100
Cc1c(F)c(C)c2[nH]ncc2c1-c1ccc2nc(NC(=O)[C@@H]3C[C@@H]3F)sc2c1 [Example 59, (1S,2S)-2-fluoro-N-(6-(6-fluoro-5,7-dimethyl-1H-indazol-4-yl)benzo[d]thiazol-2-yl)cyclopropane-1-carboxamide]	< 100
CC(NC(=O)C(F)(F)F)c1c(F)c(Cl)c(-c2ccc3nc(NC(=O)[C@@H]4C[C@@H]4F)cn3c2)c2cn[nH]c12 (stereo partly drawn) [Example 428, (1S,2S)-N-(6-(5-chloro-6-fluoro-7-(1-(2,2,2-trifluoroacetamido)ethyl)-1H-indazol-4-yl)imidazo[1,2-a]pyridin-2-yl)-2-fluorocyclopropane-1-carboxamide]	< 100
O=C(Nc1cc2cc(-c3c(Cl)c(F)c(OC(F)(F)F)c4[nH]ncc34)ccn2n1)[C@@H]1C[C@@H]1F [Example 607, (1S,2S)-N-(5-(5-chloro-6-fluoro-7-(trifluoromethoxy)-1H-indazol-4-yl)pyrazolo[1,5-a]pyridin-2-yl)-2-fluorocyclopropane-1-carboxamide]	< 100
O=C(Nc1nc2ccc(-c3c(Cl)c(F)c(C(F)F)c4[nH]ncc34)nc2s1)[C@@H]1C[C@@H]1F [Example 209, (1S,2S)-N-(5-(5-chloro-7-(difluoromethyl)-6-fluoro-1H-indazol-4-yl)thiazolo[5,4-b]pyridin-2-yl)-2-fluorocyclopropane-1-carboxamide]	< 100
CSc1c(F)c(F)c2[nH]ncc2c1-c1ccn2nc(NC(=O)[C@H]3C[C@@H]3F)cc2c1 [Example 600, (1R,2S)-N-(5-(6,7-difluoro-5-(methylthio)-1H-indazol-4-yl)pyrazolo[1,5-a]pyridin-2-yl)-2-fluorocyclopropane-1-carboxamide]	< 100
O=C(Nc1cn2cc(-c3c(Cl)c(F)c(Cn4ccnn4)c4[nH]ncc34)ccc2n1)[C@@H]1C[C@@H]1F [Example 384, (1S,2S)-N-(6-(7-((1H-1,2,3-triazol-1-yl)methyl)-5-chloro-6-fluoro-1H-indazol-4-yl)imidazo[1,2-a]pyridin-2-yl)-2-fluorocyclopropane-1-carboxamide]	< 100
CCc1c(F)c(N(CC)CC)c2[nH]ncc2c1-c1ccn2nc(NC(=O)[C@@H]3C[C@@H]3F)cc2c1 [Example 518, (1S,2S)-N-(5-(7-(diethylamino)-5-ethyl-6-fluoro-1H-indazol-4-yl)pyrazolo[1,5-a]pyridin-2-yl)-2-fluorocyclopropane-1-carboxamide]	< 100
O=C(Nc1cn2cc(-c3c(CO)ccc4[nH]ncc34)ccc2n1)C1CC1 [Example 233, N-(6-(5-(hydroxymethyl)-1H-indazol-4-yl)imidazo[1,2-a]pyridin-2-yl)cyclopropanecarboxamide]	501 to 1000
CN1CCN(c2c(F)c(Cl)c(-c3ccc4nc(NC(=O)[C@@H]5C[C@@H]5F)sc4c3)c3cn[nH]c23)CC1 [Example 75, (1S,2S)-N-(6-(5-chloro-6-fluoro-7-(4-methylpiperazin-1-yl)-1H-indazol-4-yl)benzo[d]thiazol-2-yl)-2-fluorocyclopropane-1-carboxamide]	101 to 500
CN1CCN(c2c(F)c(Cl)c(-c3ccc4nc(NC(=O)[C@@H]5C[C@@H]5F)cn4c3)c3cn[nH]c23)C1=O [Example 358, (1S,2S)-N-(6-(5-chloro-6-fluoro-7-(3-methyl-2-oxoimidazolidin-1-yl)-1H-indazol-4-yl)imidazo[1,2-a]pyridin-2-yl)-2-fluorocyclopropane-1-carboxamide]	< 100
CNC(=O)c1c(F)c(C)c(-c2ccc3nc(NC(=O)[C@@H]4C[C@@H]4F)sc3c2)c2cn[nH]c12 [Example 132, 6-fluoro-4-(2-((1S,2S)-2-fluorocyclopropane-1-carboxamido)benzo[d]thiazol-6-yl)-N,5-dimethyl-1H-indazole-7-carboxamide]	101 to 500
O=C(Nc1nc2ccc(-c3c(C(F)F)ccc4[nH]ncc34)cc2s1)[C@@H]1C[C@@H]1F [Example 33, (1S,2S)-N-(6-(5-(difluoromethyl)-1H-indazol-4-yl)benzo[d]thiazol-2-yl)-2-fluorocyclopropane-1-carboxamide]	101 to 500
